Source: US9670150B2, “(2-ureidoacetamido)alkyl derivatives as formyl peptide receptor 2 modulators” (Allergan, Inc., priority 2012, dated 2017)
pEC50: −log10 of the molar value. Like-named read-outs stand apart in the source and are kept apart here.

Target: T1, FPR2 (Homo sapiens, UniProt P25090)
T1 construct: expressed in transfected cells; host or cells: CHO-Ga16 cells stably expressing FPR2
T1 sequence (P25090 1-351): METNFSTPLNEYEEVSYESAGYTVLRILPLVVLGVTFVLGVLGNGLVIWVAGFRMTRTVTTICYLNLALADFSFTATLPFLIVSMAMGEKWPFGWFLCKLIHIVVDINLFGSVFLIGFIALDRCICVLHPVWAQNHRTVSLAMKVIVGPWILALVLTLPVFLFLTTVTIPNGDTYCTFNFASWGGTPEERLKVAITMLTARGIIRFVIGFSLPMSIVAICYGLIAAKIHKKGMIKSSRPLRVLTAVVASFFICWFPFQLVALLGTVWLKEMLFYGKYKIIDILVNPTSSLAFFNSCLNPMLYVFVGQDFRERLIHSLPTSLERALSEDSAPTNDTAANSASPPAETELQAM
Test: compound-induced calcium activity on FLIPR Tetra in CHO-Ga16 cells stably expressing FPR2
Format: cell-based
Settings: for Emax: efficacy value given as a fraction, read-out: FPR2 Ga16-CHO (0.% eff) efficacy
Method: CHO-Ga16 cells stably expressing FPR2 were cultured in (F12, 10% FBS, 1% PSA, 400 μg/ml geneticin and 50 μg/ml hygromycin) and HEK-Gqi5 cells stable expressing FPR2 were cultured in (DMEM high glucose, 10% FBS, 1% PSA, 400 μg/ml geneticin and 50 μg/ml hygromycin). In general, the day before the experiment, 18,000 cells/well were placed in a 384-well clear bottom poly-d-lysine coated plate. The following day the screening compound-induced calcium activity was assayed on the FLIPR^Tetra. The drug plates were prepared in 384-well microplates using the EP3 and the MuItiPROBE robotic liquid handling systems. Compounds were tested at concentrations ranging from 0.61 to 10,000 nM. Results are expressed as EC50 (nM) and efficacy values.

[1] = CHO-Ga16 cells stably expressing FPR2, calcium activity, FLIPR Tetra, concentrations 0.61 to 10,000 nM
[2] = CHO-Ga16 cells stably expressing FPR2

| SMILES | pEC50 [1] | Emax [2] | pEC50 |
| --- | --- | --- | --- |
| CCC[C@H](NC(=O)Nc1ccc(Br)cc1)C(=O)NCP(=O)(OC(C)C)OC(C)C [Compound 9, Diisopropyl ({[(2S)-2-({[(4-bromophenyl)amino]carbonyl}amino)pentanoyl]amino}methyl)phosphonate] | 9.10 | 94% |  |
| CCC[C@H](NC(=O)Nc1ccc(Br)cc1)C(=O)NCP(=O)(OCC)OCC [Compound 6, Diethyl ({[(2S)-2-({[(4-bromophenyl)amino]carbonyl}amino)pentanoyl]amino}methyl)phosphonate] | 9.54 | 94% |  |
| CC(C)C[C@H](NC(=O)Nc1ccc(Br)cc1)C(=O)NCc1cc(O)no1 [Compound 4, (2S)-2-({[(4-Bromophenyl)amino]carbonyl}amino)-N-[(3-hydroxyisoxazol-5-yl)methyl]-4-methylpentanamide] | 7.92 | 100% |  |
| CCOP(=O)(CCNC(=O)[C@H](CC(C)C)NC(=O)Nc1ccc(Br)cc1)OCC [Compound 8, Diethyl (2-{[(2S)-2-({[(4-bromophenyl)amino]carbonyl}amino)-4-methylpentanoyl]amino}ethyl)phosphonate] | 8.74 | 100% |  |
| CCOP(=O)(O)CNC(=O)[C@H](CC(C)C)NC(=O)Nc1ccc(C(F)(F)F)cc1 [Compound 20, Ethyl hydrogen [({(2S)-4-methyl-2-[({[4-(trifluoromethyl)phenyl]amino}carbonyl)amino]pentanoyl}amino)methyl]phosphonate] | 8.70 | 95% |  |
| CCOP(=O)(CNC(=O)[C@H](CC(C)C)NC(=O)Nc1ccc(C(F)(F)F)cc1)OCC [Compound 11, Diethyl [({(2S)-4-methyl-2-[({[4-(trifluoromethyl)phenyl]amino}carbonyl)amino]pentanoyl}amino)methyl]phosphonate] | 8.10 | 100% |  |
| CCOP(=O)(O)CNC(=O)[C@H](CC(C)C)NC(=O)Nc1ccc(S(C)(=O)=O)cc1 [Compound 21, ethyl hydrogen [({(2S)-4-methyl-2-[({[4-(methylsulfonyl)phenyl]amino}carbonyl)amino]pentanoyl}amino)methyl]phosphonate] | 6.88 | 99% |  |
| CCOP(=O)(CNC(=O)[C@H](CC(C)C)NC(=O)Nc1ccc(SC)cc1)OCC [Compound 14, Diethyl [({(2S)-4-methyl-2-[({[4-(methylthio)phenyl]amino}carbonyl)amino]pentanoyl}amino)methyl]phosphonate] | 8.68 | 90% |  |
| CC(C)C[C@H](NC(=O)Nc1ccc(Br)cc1)C(=O)NCCc1nnn[nH]1 [Compound 3, (2S)-2-({[(4-Bromophenyl)amino]carbonyl}amino)-4-methyl-N-[2-(1H-tetrazol-5-yl)ethyl]pentanamide] | 7.32 | 100% |  |
| CC(C)C[C@H](NC(=O)Nc1ccc(Br)cc1)C(=O)NCc1nnn[nH]1 [Compound 2, (2S)-2-({[(4-Bromophenyl)amino]carbonyl}amino)-4-methyl-N-(1H-tetrazol-5-ylmethyl)pentanamide] | 8.64 | 81% |  |
| CCOP(=O)(CNC(=O)[C@H](CC(C)C)NC(=O)Nc1ccc(Br)cc1)OCC [Compound 1, Diethyl({[(2S)-2-({[(4-bromophenyl)amino]carbonyl}amino)-4-methylpentanoyl]amino}methyl)phosphonate] | 9.23 | 100% |  |
| CC(C)C[C@H](NC(=O)Nc1ccc(C(F)(F)F)cc1)C(=O)NCS(=O)(=O)O [Compound 13, ({(2S)-4-methyl-2-[({[4-(trifluoromethyl)phenyl]amino}carbonyl)amino]pentanoyl}amino)methanesulfonic acid] | 8.80 | 100% |  |
| CCOP(=O)(O)CNC(=O)[C@@H](NC(=O)Nc1ccc(Br)cc1)[C@@H](C)CC [Compound 16, Ethyl hydrogen ({[(2S,3S)-2-({[(4-bromophenyl)amino]carbonyl}amino)-3-methylpentanoyl]amino}methyl)phosphonate] | 8.49 | 88% |  |
| CCC[C@H](NC(=O)Nc1ccc(Br)cc1)C(=O)NCP(=O)(O)O [Compound 22, ({[(2S)-2-({[(4-bromophenyl)amino]carbonyl}amino)pentanoyl]amino}methyl)phosphonic acid] | 7.49 | 94% |  |
| CC(C)C[C@H](NC(=O)Nc1ccc(Br)cc1)C(=O)NCS(=O)(=O)O [{[(2S)-2-{[(4-Bromophenyl)carbamoyl]amino}-4-methylpentanoyl]amino}methanesulfonic acid] | 8.64 | 91% |  |
| CCCC(NC(=O)Nc1ccc(Br)cc1)C(=O)NCP(=O)(O)OC(C)C (centres unmarked) [Compound 19, Iso-propyl hydrogen ({[2-({[(4-bromophenyl)amino]carbonyl}amino)pentanoyl]amino}methyl)phosphonate] | 8.73 | 89% |  |
| CCOP(=O)(CNC(=O)[C@H](CC(C)C)NC(=O)Nc1ccc(S(C)(=O)=O)cc1)OCC [Compound 24, Diethyl[({(2S)-4-methyl-2-[({[4-(methylsulfonyl)phenyl]amino}carbonyl)amino]pentanoyl}amino)methyl]phosphonate] | 7.35 | 112% |  |
| CC(C)C[C@H](NC(=O)Nc1ccc(C(F)(F)F)cc1)C(=O)NCc1nnn[nH]1 [Compound 12, (2S)-4-methyl-N-(1H-tetrazol-5-ylmethyl)-2-[({[4-(trifluoromethyl)phenyl]amino}carbonyl)amino]pentanamide] | 8.40 | 91% |  |
| CC(C)C[C@H](NC(=O)Nc1ccc(Br)cc1)C(=O)NCP(=O)(OC(C)C)OC(C)C [Compound 10, Diisopropyl ({[2-({[(4-bromophenyl)amino]carbonyl}amino)-4-methylpentanoyl]amino}methyl)phosphonate] | 8.40 | 100% |  |
| CCOP(=O)(CNC(=O)[C@@H](NC(=O)Nc1ccc(Br)cc1)[C@@H](C)CC)OCC [Compound 5, Diethyl ({[(2S,3S)-2-({[(4-bromophenyl)amino]carbonyl}amino)-3-methylpentanoyl]amino}methyl)phosphonate] | 8.62 | 100% |  |
| CC(C)C[C@H](NC(=O)Nc1ccc(C(F)(F)F)cc1)C(=O)NCP(=O)(O)O [Compound 23, [({(2S)-4-methyl-2-[({[4-(trifluoromethyl)phenyl]amino}carbonyl)amino]pentanoyl}amino)methyl]phosphonic acid] | 7.19 | 102% |  |
| CCC[C@H](NC(=O)Nc1ccc(Br)cc1)C(=O)NCP(=O)(O)OCC [Compound 17, Ethyl hydrogen ({[(2S)-2-({[(4-bromophenyl)amino]carbonyl}amino)pentanoyl]amino}methyl)phosphonate] |  | 94% | 9.00 |
| CCOP(=O)(CNC(=O)[C@H](Cc1ccccc1)NC(=O)Nc1ccc(Br)cc1)OCC [Compound 7, Diethyl ({[(2S)-2-({[(4-bromophenyl)amino]carbonyl}amino)-3-phenylpropanoyl]amino}methyl)phosphonate] | 7.70 | 98% |  |
| CCOP(=O)(O)CNC(=O)[C@H](CC(C)C)NC(=O)Nc1ccc(Br)cc1 [Compound 15, Ethyl hydrogen({[(2S)-2-({[(4-bromophenyl)amino]carbonyl}amino)-4-methylpentanoyl]amino}methyl)phosphonate] |  | 88% | 9.02 |
| CCOP(=O)(O)CNC(=O)[C@H](Cc1ccccc1)NC(=O)Nc1ccc(Br)cc1 [Compound 18, Ethyl hydrogen ({[(2S)-2-({[(4-bromophenyl)amino]carbonyl}amino)-3-phenylpropanoyl]amino}methyl)phosphonate] |  | 110% | 7.80 |
